The text below walks through data of ChEMBL document CHEMBL1201862, “PubChem BioAssay data set” (2004).

The source made the active and inactive calls.

Test [1] concerns the target 1-phosphatidylinositol 4,5-bisphosphate phosphodiesterase gamma-1 (Homo sapiens, UniProt P19174). The test is described as follows: Counterscreen for inhibitors of phospholipase C isozymes (PLC-B3): Fluorescence-based biochemical high throughput dose response assay to identify inhibitors of phospholipase C isozymes (PLC-gamma1).
Test [2] addresses 1-phosphatidylinositol 4,5-bisphosphate phosphodiesterase beta-3 (Homo sapiens, UniProt Q01970). The test is described as follows: Fluorescence-based biochemical high throughput dose response assay to identify inhibitors of phospholipase C isozymes (PLC-B3).
In test [3] the target is fMet-Leu-Phe receptor (Homo sapiens, UniProt P21462). As to the kind of experiment: FPR ligands, dose response (AID 519). Type of test: functional.
A short description of test [4]: T. cruzi intracellular amastigote growth inhibition, dose response, imaging, CA-I/72 strain, bovine embryo skeletal muscle, dry powder (AID 651885). Type of test: functional, cell-based.
The target in test [5] is Paired box protein Pax-8 (Homo sapiens, UniProt Q06710). The test is described as follows: inhibitors of PAX8-driven TPO luciferase reporter, dose response, RMG-I cells, cherry-pick (AID 687027).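 Further: luciferase reporter driven by Pax8 target thyroperoxidase promoter measured by SteadyGlo luminescence.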 Type of test: functional, cell-based.
A short description of test [6]: IGROV1 ovarian cancer cell cytotoxicity, dose response, PAX8 inhibitor project, plate reader, dry powder samples (AID 743043). Type of test: functional, cell-based. The note with it: IGROV-1.
Test [7] in a line: non-specific cell cytotoxicity, dose response, cytotoxicity control for PAX8 inhibitor project, plate reader, dry powder samples (AID 743021). The format is functional, cell-based.
The nature of test [8]: cytotoxicity in OVCAR8 ovarian cancer cells, dose response, PAX8 project, cell-based, plate reader, dry powder samples (AID 743197). The format is functional. The note with it: OVCAR-8.
Test [9] is described as follows: cells. The format is functional, cell-based.
For test [10], the target named is T1, Nuclear receptor subfamily 0 group B member 1 (Homo sapiens, UniProt P51843).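 Further: HEK293T cells transfected with SF-1 and DAX-1 plus StAR promoter luciferase reporter.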
T1 sequence (P51843 whole entry): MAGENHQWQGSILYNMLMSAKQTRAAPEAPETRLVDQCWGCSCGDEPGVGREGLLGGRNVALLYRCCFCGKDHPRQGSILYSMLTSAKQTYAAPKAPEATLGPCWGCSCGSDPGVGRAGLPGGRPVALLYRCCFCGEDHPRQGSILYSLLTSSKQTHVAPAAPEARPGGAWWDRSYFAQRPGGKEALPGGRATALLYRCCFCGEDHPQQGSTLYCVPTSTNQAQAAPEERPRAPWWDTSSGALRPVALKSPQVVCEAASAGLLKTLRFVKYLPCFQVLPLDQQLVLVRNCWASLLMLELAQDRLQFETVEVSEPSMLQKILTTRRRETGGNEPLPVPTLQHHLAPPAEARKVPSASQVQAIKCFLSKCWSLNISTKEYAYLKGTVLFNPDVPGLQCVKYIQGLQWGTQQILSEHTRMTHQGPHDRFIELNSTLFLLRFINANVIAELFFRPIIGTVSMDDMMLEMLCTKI
The format is functional, cell-based.

Test [11] deals with Luciferin 4-monooxygenase (Photinus pyralis, UniProt P08659). As to the kind of experiment: firefly luciferase enzyme inhibitors, dose response, biochemical, luminescence (AID 1891).
Test [12] in a line: Luminescence Cell-Based Dose Confirmation HTS to Identify Inhibitors of Platelet Dense Granule Release. [Related pubchem assays: 1663 (Primary HTS), 1678 (Summary of Project)]. Type of test: functional.
Test [13] addresses T2, Protein skinhead-1 (Caenorhabditis elegans, UniProt P34707).
T2 sequence (P34707 whole entry): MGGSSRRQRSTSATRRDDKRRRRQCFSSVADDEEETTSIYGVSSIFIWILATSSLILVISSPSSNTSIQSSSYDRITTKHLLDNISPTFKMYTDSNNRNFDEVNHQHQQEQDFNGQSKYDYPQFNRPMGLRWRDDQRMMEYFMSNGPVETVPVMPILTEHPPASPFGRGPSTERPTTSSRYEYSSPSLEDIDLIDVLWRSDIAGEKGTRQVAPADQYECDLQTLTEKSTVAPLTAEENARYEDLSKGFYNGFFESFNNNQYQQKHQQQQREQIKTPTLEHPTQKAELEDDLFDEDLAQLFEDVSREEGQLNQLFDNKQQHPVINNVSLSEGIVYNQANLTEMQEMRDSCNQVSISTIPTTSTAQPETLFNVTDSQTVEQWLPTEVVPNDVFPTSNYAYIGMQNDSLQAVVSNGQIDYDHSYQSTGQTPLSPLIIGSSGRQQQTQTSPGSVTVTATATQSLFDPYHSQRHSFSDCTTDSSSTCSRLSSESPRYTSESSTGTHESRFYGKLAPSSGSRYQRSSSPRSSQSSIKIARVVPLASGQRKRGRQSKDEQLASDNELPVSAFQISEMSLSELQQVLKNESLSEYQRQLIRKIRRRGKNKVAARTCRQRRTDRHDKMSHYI
Type of test: functional.

Test [14] in a line: HepG2 cell cytotoxicity, dose response, cytotoxicity control, plate reader, cherry-pick, antagonist series (AID 743416). The format is functional, cell-based.
The nature of test [15]: LGR2 antagonists, dose response, cell-based, HEK293, CRE-luciferase reporter, cherry pick, set 2 (AID 743343).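 Further: transfected cells were stimulated with diluted bursicon conditioned medium after compound addition.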 Type of test: functional. Background: Reporter assays use an easily measured gene product as a stand-in for the process of interest.
Test [16] in a line: MC4R antagonists, dose response, counter-screen for LGR2 antagonist project, cell-based, plate reader, cherry pick (AID 743444).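 Further: transfected HEK 293 cells stimulated with alpha-MSH peptide; potency of inhibitors of the alpha-MSH evoked signal.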 The format is functional.
Test [17] has as its target T3, Oxysterols receptor LXR-beta (Homo sapiens, UniProt P55055).
T3 sequence (P55055 whole entry): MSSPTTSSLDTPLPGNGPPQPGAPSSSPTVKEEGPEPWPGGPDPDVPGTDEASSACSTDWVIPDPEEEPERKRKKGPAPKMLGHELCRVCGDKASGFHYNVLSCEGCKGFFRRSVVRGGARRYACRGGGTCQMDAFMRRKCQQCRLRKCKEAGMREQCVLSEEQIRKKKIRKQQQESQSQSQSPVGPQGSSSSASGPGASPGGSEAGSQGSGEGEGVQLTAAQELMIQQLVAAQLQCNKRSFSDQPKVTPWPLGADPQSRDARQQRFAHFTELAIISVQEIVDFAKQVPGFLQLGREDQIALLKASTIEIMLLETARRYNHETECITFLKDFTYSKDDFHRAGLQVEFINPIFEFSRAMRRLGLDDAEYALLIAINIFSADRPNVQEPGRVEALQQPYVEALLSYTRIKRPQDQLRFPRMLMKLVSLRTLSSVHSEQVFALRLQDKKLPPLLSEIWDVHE
The format is functional, cell-based.

Test [18] in a line: cells.
Test [19] addresses T3, Oxysterols receptor LXR-beta. The format is functional, cell-based. The source holds these as a separate data set.
A short description of test [20]: Luminescence Cell-Based Dose Response HTS to Identify Inhibitors of 5'UTR Stem-Loop Driven Prion Protein mRNA Translation in H4 Neuroglioblastoma Cells. [Related pubchem assays: 1827 (Project Summary), 1813 (Primary HTS)]. The format is functional.
Test [21] has as its target Major prion protein (Homo sapiens, UniProt P04156). The format is functional, cell-based.
Test [22] can be described thus: cells. This is another data set of the same source.
Test [23] deals with T4, DNA repair and recombination protein RAD54-like (Homo sapiens, UniProt Q92698).
T4 sequence (Q92698 whole entry): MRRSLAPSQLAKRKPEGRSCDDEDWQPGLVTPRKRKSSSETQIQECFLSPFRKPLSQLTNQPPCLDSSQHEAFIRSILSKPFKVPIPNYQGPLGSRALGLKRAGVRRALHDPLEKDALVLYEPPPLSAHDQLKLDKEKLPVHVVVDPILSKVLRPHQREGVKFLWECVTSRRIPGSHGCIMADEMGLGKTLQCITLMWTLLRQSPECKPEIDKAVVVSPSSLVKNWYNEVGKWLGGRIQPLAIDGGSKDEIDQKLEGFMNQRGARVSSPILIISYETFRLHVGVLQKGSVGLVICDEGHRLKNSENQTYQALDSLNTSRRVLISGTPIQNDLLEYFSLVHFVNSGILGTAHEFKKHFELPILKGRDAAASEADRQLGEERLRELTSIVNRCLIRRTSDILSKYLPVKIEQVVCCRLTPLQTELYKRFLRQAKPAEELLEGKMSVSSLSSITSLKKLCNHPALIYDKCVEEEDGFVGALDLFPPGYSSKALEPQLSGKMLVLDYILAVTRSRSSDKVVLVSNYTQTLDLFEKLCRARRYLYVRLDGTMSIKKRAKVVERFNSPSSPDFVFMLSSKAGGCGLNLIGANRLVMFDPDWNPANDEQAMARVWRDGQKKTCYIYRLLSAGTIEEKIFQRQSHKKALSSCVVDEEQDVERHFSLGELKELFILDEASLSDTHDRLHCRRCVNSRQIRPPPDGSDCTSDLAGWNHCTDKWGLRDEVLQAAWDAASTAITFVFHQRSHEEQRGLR
As to the kind of experiment: inhibitors of human RAD54 branch migration, confirmation, biochemical, fluorescence, cherry-picked samples, dose series (AID 651657). The format is functional.

The target in test [24] is DNA repair protein RAD52 homolog (Homo sapiens, UniProt P43351). Type of test: functional, biochemical.
A short description of test [25]: Luminescence-based cell-based high throughput dose response assay to identify activators of the DAF-12 from the parasite S. stercoralis (ssDAF-12). Type of test: functional.
The target in test [26] is T3, Oxysterols receptor LXR-beta. The test is described as follows: LXR agonists, Gal4 luciferase reporter, dose response, counter-screen for ssDAF-12 agonist project, cell-based, luminescence, HEK293, S. stercoralis campaign (AID 720737). The format is functional. The following applies: read-out: IC50 (the source's name).
The nature of test [27]: HEK293T cytotoxicity, dose response, cytotoxicity control for miR-122 modulator project, cell-based, activator set, cherry-pick (AID 720690).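 Further: HEK293T human cells scored for general mammalian cytotoxicity.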 Type of test: functional.

The term IC50 denotes the concentration needed to halve the response being measured. As usually defined, the Ki is the equilibrium dissociation constant of an inhibitor or competing ligand from its target. As usually defined, the AC50 is the midpoint of the concentration-response curve, whichever way the signal moves.

On to `O=S(=O)(CS(=O)(=O)c1ccc(Br)cc1)c1ccc(Br)cc1`, for which the IC50 in test [1] was 30.4 µM (inactive); in [2] it was > 123 µM (inactive).

On to `COc1ccc(-c2nc(-c3ccc(Br)o3)no2)cc1OC`, for which, in test [3], the Ki is > 66.7 µM (inactive).

As to `CC(C)N1C[C@H](C)[C@@H](CN(C)C(=O)OC(C)(C)C)Oc2c(NC(=O)c3cccnc3)cccc2C1=O`, the IC50 in test [4] is > 20 µM (inactive).

For `COc1ccc(NC(=O)N2CC(=O)N3[C@@H](CO)[C@@H](c4ccc(/C=C/c5ccccc5)cc4)[C@@H]3C2)cc1`, the AC50 is 5.52 µM (active) in test [5], 54.8 µM (active) in test [6], 7.22 µM (active) in [7] and 39.1 µM (active) in [8].

Consider `C=CCOc1ccc(/C=N/Nc2ccccn2)cc1OC`, for which the IC50 in test [9] and in test [10] was > 67.5 µM (inactive) each time.

For the molecule `Cc1ccc(-c2noc(-c3cccs3)n2)cc1`, the EC50 in test [11] is 3.98 µM (active); in test [12], > 112 µM (not active); in [17], > 67.5 µM (inactive); in test [18], > 67.5 µM (inactive). The IC50 in [13] was 18.8 µM (active). The figures for the AC50 in test [14], in [15] and in [16] were > 52 µM (inactive), 14.4 µM (active) and 22.3 µM (active), respectively.

`Oc1cc(-c2ccccc2)nc(N2CCN(Cc3ccccc3)CC2)n1`: the Ki in test [3] is > 66.7 µM (inactive).

In the case of `Cn1c(SCc2ccccc2F)nc2cccnc21`, the EC50 in test [19] was > 67.5 µM (inactive).

For the molecule `Cc1ccc(CNC2=Nc3ccccc3CS2)cc1`, the EC50 in [17] and in test [18] was > 67.5 µM (inactive) throughout.

In the case of `O=C(N/N=C/c1cccs1)c1[nH]nc2c1CCC2`, the results for the EC50 in test [20] and in test [19] were 11 µM (inconclusive) and > 67.5 µM (inactive), respectively.

Regarding `O=C(COc1ccc2ccccc2c1Br)NC(=S)Nc1cccc(CO)c1`, the values for the IC50 in [21] and in test [22] were 9.99 µM (active) and 98.9 µM (inactive), respectively.

Regarding `CN(C)CCNC(=O)c1cccc(-c2cnc3c(NC=O)cc(-c4ccccc4F)cn23)c1`, the AC50 in test [23] is 21.7 µM (active); in [24] it was 3.69 µM (active).

Turning to `COc1cccc(CC(=O)Nc2ccc3c(c2)c(=O)n(C)n3-c2ccc(C(C)(C)C)cc2)c1`, the IC50 in test [25] is > 67.6 µM (inactive). In test [26], the EC50 is > 67.6 µM (inactive).

On to `CCc1nc(SCC(=O)OC(C)C)c2ccccc2n1`, for which the values for the IC50 in [21] and in test [22] were 2.38 µM (active) and > 138 µM (inactive), respectively.

On to `C[C@H]1CN([C@@H](C)CO)S(=O)(=O)c2ccc(C#CC3CCCCC3)cc2O[C@@H]1CN(C)C`, for which the AC50 in [27] was 26.4 µM (active).

With `CCCCN1C(C)=CC(=C2C(=O)c3ccccc3C2=O)C=C1C`, the IC50 in [9] and in test [10] was > 67.5 µM (inactive) each time.

Regarding `COc1ccc(C#Cc2ccc3c(c2)O[C@H](CN(C)C(=O)CN2CCOCC2)[C@@H](C)CN([C@@H](C)CO)S3(=O)=O)cc1`, the AC50 in [27] is 43.2 µM (active).
